Measurements: patent US12043632B2, “6-heteroaryloxy benzimidazoles and azabenzimidazoles as JAK2 inhibitors” (Ajax Therapeutics, Inc., priority 2020, dated 2024)

What follows are molecules tested against T1, JAK2 (JH1domain-catalytic, Y1007F,Y1008F) kinase (Homo sapiens, UniProt O60674, Y1007F/Y1008F) (assay: JAK2 JH1 Domain Binding Assay). Conditions: qPCR readout.
T1 construct: JAK2 (JH1domain-catalytic, Y1007F,Y1008F) kinase was expressed as N-terminal fusion; made in house; host or cells: transiently transfected HEK293 cells
T1 sequence (O60674 849-1124 Y1007F/Y1008F limits assumed): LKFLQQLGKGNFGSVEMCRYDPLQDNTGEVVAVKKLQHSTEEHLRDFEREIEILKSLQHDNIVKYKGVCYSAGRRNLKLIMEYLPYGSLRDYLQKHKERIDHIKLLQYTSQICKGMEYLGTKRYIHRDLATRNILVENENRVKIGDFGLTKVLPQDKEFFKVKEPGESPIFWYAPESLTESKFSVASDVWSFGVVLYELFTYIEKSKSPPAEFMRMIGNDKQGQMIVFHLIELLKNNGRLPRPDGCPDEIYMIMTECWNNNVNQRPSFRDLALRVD

Compound	Kd [µM]
Cc1c(Oc2cnc3nc(Nc4cc(C(F)(F)F)cn(C)c4=O)n(C)c3c2C#N)cnc2[nH]ccc12 [Example I-334, 1-methyl-6-((4-methyl-1H-pyrrolo[2,3-b]pyridin-5-yl)oxy)-2-((1-methyl-2-oxo-5-(trifluoromethyl)-1,2-dihydropyridin-3-yl)amino)-1H-imidazo[4,5-b]pyridine-7-carbonitrile]	0.01 to 0.05
COc1c(Oc2cnn3ccncc23)cnc2nc(Nc3cc(C(C)(C)C)n([C@@H]4CCN(CCF)C4)n3)n(C)c12 [Example I-62, (R)—N-(5-(tert-butyl)-1-(1-(2-fluoroethyl)pyrrolidin-3-yl)-1H-pyrazol-3-yl)-7-methoxy-1-methyl-6-(pyrazolo[1,5-a]pyrazin-3-yloxy)-1H-imidazo[4,5-b]pyridin-2-amine]	0.01 to 0.05
CO[C@H]1CCN(Cc2ccc(Nc3nc4ncc(Oc5cnn6ccncc56)c(Cl)c4n3C)cc2C(F)(F)F)C1 [Example I-175, (S)-7-chloro-N-(4-((3-methoxypyrrolidin-1-yl)methyl)-3-(trifluoromethyl)phenyl)-1-methyl-6-(pyrazolo[1,5-a]pyrazin-3-yloxy)-1H-imidazo[4,5-b]pyridin-2-amine]	0.01 to 0.05
CNc1ccc2c(Oc3cnc4nc(Nc5cc(C(F)(F)F)cn(C)c5=O)n(C)c4c3C#N)cnn2c1 [Example I-302, 1-methyl-2-((1-methyl-2-oxo-5-(trifluoromethyl)-1,2-dihydropyridin-3-yl)amino)-6-((6-(methylamino)pyrazolo[1,5-a]pyridin-3-yl)oxy)-1H-imidazo[4,5-b]pyridine-7-carbonitrile]	0.01 to 0.05
CNc1nccn2ncc(Oc3cnc4nc(Nc5cc(OCC6CN(C)C6)cc(C(F)(F)F)c5)n(C)c4c3Cl)c12 [Example I-275, 7-chloro-1-methyl-6-((4-(methylamino)pyrazolo[1,5-a]pyrazin-3-yl)oxy)-N-(3-((1-methylazetidin-3-yl)methoxy)-5-(trifluoromethyl)phenyl)-1H-imidazo[4,5-b]pyridin-2-amine]	0.01 to 0.05
CNc1cn2ncc(Oc3cnc4nc(Nc5cc6c(c(C(F)(F)F)c5)C(C)(C)N(C)C6=O)n(C)c4c3Cl)c2cn1 [Example I-311, 6-((7-chloro-1-methyl-6-((6-(methylamino)pyrazolo[1,5-a]pyrazin-3-yl)oxy)-1H-imidazo[4,5-b]pyridin-2-yl)amino)-2,3,3-trimethyl-4-(trifluoromethyl)isoindolin-1-one]	0.01 to 0.05
Cn1c(Nc2cc(C(C)(C)C)n([C@H]3CCN(CCF)C3)n2)nc2ncc(Oc3cnn4ccncc34)c(C(F)F)c21 [Example I-43, (S)—N-(5-(tert-butyl)-1-(1-(2-fluoroethyl)pyrrolidin-3-yl)-1H-pyrazol-3-yl)-7-(difluoromethyl)-1-methyl-6-(pyrazolo[1,5-a]pyrazin-3-yloxy)-1H-imidazo[4,5-b]pyridin-2-amine]	0.01 to 0.05
Cn1c(Nc2ccc(CN3CCCC(F)(F)C3)c(C(F)(F)F)c2)nc2ncc(Oc3cnn4ccncc34)c(Cl)c21 [Example I-174, 7-chloro-N-(4-((3,3-difluoropiperidin-1-yl)methyl)-3-(trifluoromethyl)phenyl)-1-methyl-6-(pyrazolo[1,5-a]pyrazin-3-yloxy)-1H-imidazo[4,5-b]pyridin-2-amine]	0.01 to 0.05
COc1c(Oc2cnn3ccncc23)cnc2nc(Nc3cc(C(C)(C)C)n([C@H]4CCC[C@H]4O)n3)n(C)c12 (single isomer, unassigned) [Example I-69-a]	0.05 to 1
COc1c(Oc2cnc3sccc3c2)cnc2nc(Nc3cc(C(C)(C)C)n([C@H]4CCN(C)C4)n3)n(C)c12 [Example I-45, (S)—N-(5-(tert-butyl)-1-(1-methylpyrrolidin-3-yl)-1H-pyrazol-3-yl)-7-methoxy-1-methyl-6-(thieno[2,3-b]pyridin-5-yloxy)-1H-imidazo[4,5-b]pyridin-2-amine]	0.01 to 0.05
COc1c(Oc2cnn3ccccc23)cnc2nc(Nc3cc(C4CC4)cn(CCCN4CCC(F)(F)C4)c3=O)n(C)c12 [Example I-123, 5-cyclopropyl-1-(3-(3,3-difluoropyrrolidin-1-yl)propyl)-3-((7-methoxy-1-methyl-6-(pyrazolo[1,5-a]pyridin-3-yloxy)-1H-imidazo[4,5-b]pyridin-2-yl)amino)pyridin-2(1H)-one]	0.01 to 0.05
CNc1cn2ncc(Oc3cnc4nc(Nc5cc(CN6CC[C@@H](OC)C6)cc(C(F)(F)F)c5)n(C)c4c3Cl)c2cn1 [Example I-308, (R)-7-chloro-N-(3-((3-methoxypyrrolidin-1-yl)methyl)-5-(trifluoromethyl)phenyl)-1-methyl-6-((6-(methylamino)pyrazolo[1,5-a]pyrazin-3-yl)oxy)-1H-imidazo[4,5-b]pyridin-2-amine]	0.01 to 0.05
CN(C)c1cc(Nc2nc3ncc(Oc4cnn5ccncc45)c(Cl)c3n2C)cc(C(F)(F)F)n1 [Example I-274, N^4-(7-chloro-1-methyl-6-(pyrazolo[1,5-a]pyrazin-3-yloxy)-1H-imidazo[4,5-b]pyridin-2-yl)-N^2,N^2-dimethyl-6-(trifluoromethyl)pyridine-2,4-diamine]	0.01 to 0.05
Cc1nc(Nc2nc3ncc(Oc4cnn5ccncc45)c(Cl)c3n2C)nc(C)c1C1CCCC1 [Example I-253, 7-chloro-N-(5-cyclopentyl-4,6-dimethylpyrimidin-2-yl)-1-methyl-6-(pyrazolo[1,5-a]pyrazin-3-yloxy)-1H-imidazo[4,5-b]pyridin-2-amine]	< 0.01
COCCn1cc(C2CC2)cc(Nc2nc3ncc(Oc4cnn5ccncc45)c(OC)c3n2C)c1=O [Example I-58, 5-cyclopropyl-3-((7-methoxy-1-methyl-6-(pyrazolo[1,5-a]pyrazin-3-yloxy)-1H-imidazo[4,5-b]pyridin-2-yl)amino)-1-(2-methoxyethyl)pyridin-2(1H)-one]	< 0.01
Cn1c(Nc2cc(C(C)(C)C)n([C@H]3CCOC3)n2)nc2ncc(Oc3cnn4cnnc4c3)c(Cl)c21 [Example I-16, (S)-6-([1,2,4]triazolo[4,3-b]pyridazin-7-yloxy)-N-(5-(tert-butyl)-1-(tetrahydrofuran-3-yl)-1H-pyrazol-3-yl)-7-chloro-1-methyl-1H-imidazo[4,5-b]pyridin-2-amine]	0.01 to 0.05

Other lines, results leading:

Kd [µM]	Compound
< 0.01	Cn1c(Nc2cc(C(F)(F)F)cn(-c3cccnc3)c2=O)nc2ncc(Oc3cnn4ccccc34)c(C#N)c21 [Example I-157, 1-methyl-2-((2-oxo-5-(trifluoromethyl)-2H-[1,3′-bipyridin]-3-yl)amino)-6-(pyrazolo[1,5-a]pyridin-3-yloxy)-1H-imidazo[4,5-b]pyridine-7-carbonitrile]
< 0.01	COCCOc1ccc2c(Oc3cnc4nc(Nc5cc6n(n5)CCCC6(F)F)n(C)c4c3C#N)cnn2c1 [Example I-369, 2-((4,4-difluoro-4,5,6,7-tetrahydropyrazolo[1,5-a]pyridin-2-yl)amino)-6-((6-(2-methoxyethoxy)pyrazolo[1,5-a]pyridin-3-yl)oxy)-1-methyl-1H-imidazo[4,5-b]pyridine-7-carbonitrile]
< 0.01	CN(C)c1n[nH]c2ncc(Oc3cnc4nc(Nc5cc(C(F)(F)F)cn(C)c5=O)n(C)c4c3C#N)cc12 [Example I-368, 6-((3-(dimethylamino)-1H-pyrazolo[3,4-b]pyridin-5-yl)oxy)-1-methyl-2-((1-methyl-2-oxo-5-(trifluoromethyl)-1,2-dihydropyridin-3-yl)amino)-1H-imidazo[4,5-b]pyridine-7-carbonitrile]
< 0.01	COc1c(Oc2cnn3ccncc23)cnc2nc(Nc3cc(C4CC4)cn([C@H](C)CC#N)c3=O)n(C)c12 (single isomer, unassigned) [Example I-121-b]
< 0.01	Cn1c(Nc2cc(C(C)(C)C)n(C3CC4(COC4)C3)n2)nc2ncc(Oc3cnn4ccncc34)c(Cl)c21 [Example I-49, N-(5-(tert-butyl)-1-(2-oxaspiro[3.3]heptan-6-yl)-1H-pyrazol-3-yl)-7-chloro-1-methyl-6-(pyrazolo[1,5-a]pyrazin-3-yloxy)-1H-imidazo[4,5-b]pyridin-2-amine]
< 0.01	Cn1c(Nc2cc(CN3CCOCC3)cc(C(F)(F)F)c2)nc2ncc(Oc3cnn4ccncc34)c(Cl)c21 [Example I-194, 7-chloro-1-methyl-N-(3-(morpholinomethyl)-5-(trifluoromethyl)phenyl)-6-(pyrazolo[1,5-a]pyrazin-3-yloxy)-1H-imidazo[4,5-b]pyridin-2-amine]
< 0.01	Cn1c(Nc2cc(C3CC3)cn([C@H]3CCCOC3)c2=O)nc2ncc(Oc3cnn4ccncc34)c(Cl)c21 (single isomer, unassigned) [Example I-73-a]
< 0.01	Cn1c(Nc2cc(C3CC3)cn([C@H]3CC[C@@H]3O)c2=O)nc2ncc(Oc3cnn4ccncc34)c(Cl)c21 (single isomer, unassigned) [Example I-95-a]
< 0.01	Cn1c(Nc2cc(C3CC3)cn(C3CCOCC3)c2=O)nc2ncc(Oc3cnn4ccncc34)c(Cl)c21 [Example I-68, 3-((7-chloro-1-methyl-6-(pyrazolo[1,5-a]pyrazin-3-yloxy)-1H-imidazo[4,5-b]pyridin-2-yl)amino)-5-cyclopropyl-1-(tetrahydro-2H-pyran-4-yl)pyridin-2(1H)-one]
< 0.01	[2H]C([2H])([2H])n1cc(C(F)(F)F)cc(Nc2nc3ncc(Oc4cnn5ccnc(NC)c45)c(Cl)c3n2C)c1=O [Example I-217, 3-((7-chloro-1-methyl-6-((4-(methylamino)pyrazolo[1,5-a]pyrazin-3-yl)oxy)-1H-imidazo[4,5-b]pyridin-2-yl)amino)-1-(methyl-d3)-5-(trifluoromethyl)pyridin-2(1H)-one]
< 0.01	COc1c(Oc2cnn3ccncc23)cnc2nc(Nc3cc(C4CC4)cn([C@H]4CC[C@H]4O)c3=O)n(C)c12 (single isomer, unassigned) [Example I-104-b]
< 0.01	COc1c(Oc2cnn3ccccc23)cnc2nc(Nc3cc(C4CC4)cn([C@H]4CCCOC4)c3=O)n(C)c12 (single isomer, unassigned) [Example I-101-a]
< 0.01	Cn1cc(C(F)(F)F)cc(Nc2nc3ncc(Oc4cnc5[nH]ncc5c4)c(Cl)c3n2C)c1=O [Example I-261, 3-((6-((1H-pyrazolo[3,4-b]pyridin-5-yl)oxy)-7-chloro-1-methyl-1H-imidazo[4,5-b]pyridin-2-yl)amino)-1-methyl-5-(trifluoromethyl)pyridin-2(1H)-one]
